Key:
Colon 26 tumor cells = experiment: Experimental kidney tumor assay of sonodynamic sensitizing activity; assay type: in vivo, mouse; conditions: 1.0 mg/kg i.v., ultrasound 24 hours later, 5 minutes, 0.5 and 1 MHz, 8 W/cm^2; sacrifice after 7 days
Protocol: In vivo activity for sonodynamic therapy is determined, e.g., by post-mortum histological examination of tumor tissue by hematoxylin and eosin, as described in Yumita et al., Cancer Letters 112 (1997). The antitumor effects of sonodynamic therapy are evaluated by implanting tumor cells into one kidney in a mouse (the other kidney remaining untreatd and serving as a control). Approximately 24 hours after intravenous administration of a sonodynamic sensitizer to be tested, the mouse is anesthesized and the tumorous kidney exteriorized. The position and the angle of the mouse are adjusted to facilitate ultrasound ultrasound penetration of the entire kidney, with the tumor at the focal spot. Ultrasound is delivered in continuous waves by a focused array transducer, the kidney is returned to the abdominal cavity and the abdomen is closed. After 7 days the mouse is sacrificed and the kidneys stained with hematoxylin and eosin for histologic examination. The tumor bearing and control kidneys are compared.
This procedure is a modification of a procedure initially described by Yumita et al., Cancer Letters 112 (1997).
Colon 26 tumor cells are implanted into one kidney in a male CDF mouse (the other kidney remaining untreated and serving as a control). After 14 days, 1.0 mg/kg of a texaphyrin is administered by intravenous injection. 24 Hours later, the mouse is anesthetized and the tumorous kidney exteriorized. The position and the angle of the mouse are adjusted to facilitate ultrasound ultrasound penetration of the entire kidney, with the tumor at the focal spot. Ultrasound is delivered in continuous waves by a focused array transducer. The tumor is exposed to focused ultrasound for 5 minutes in a progressive wave mode, at a frequency of 0.5 MHz for the first wave and 1 MHz for the second wave, at an intensity of 8 W/cm^2 followed by the second-harmonic superimposition of ultrasound at the same intensity, for a total exposure of 5 minutes. The kidney is returned to the abdominal cavity and the abdomen is closed. […]

[1] = tested on: murine leukemia L1210 cells; experiment: Amino acid (cytoleucine) transport after ultrasound in L1210 cells; assay type: cell-based; conditions: 6 μM sensitizer, 15 min loading at 37° C., only intracellular texaphyrin; ultrasound 1.94 MHz, 3.9 W/cm^2
Protocol: (§1) The effect of low-level, non-thermal ultrasound on the murine leukemia L1210 cell line in culture, measuring ultrasound-induced cytotoxicity is determined by a modification of the procedure initially described by Kessel et al., 1994. Int. J. Radiat. Biol., 66 (1994). Sonodynamic therapy with and without a texaphyrin and with and without low intensity irradiation of ultrasound. A murine 1210 cell line was used, The cytotoxicity of low-intensity ultrasound on murine leukemia L1210 cells is associated with cell fragmentation, and was detected by measuring the inhibition of the active transport of a non-metabolized amino acid (cytoleucine) and by a viability assay.
(§2) Cell Culture Systems—Murine leukemia L1210 cells were grown in Fischer's medium (GIBCO, Grand Island, N.Y.) supplemented with glutamine, 10% horse serum and gentamicin. All operations were carried out at 37° C. […]
Amino Acid Transport—The effect of ultrasound on the capacity of L1210 cells for concentrative accumulation of the non-metabolized amino-acid cytoleucine was assesed as a probe for damage to membrane […] systems. […] After 15 minutes, the cells were collected by centrifugation, washed with isotonic NaCl and cell radioactivity determined by liquid scintillation counting. […]

[2] = tested on: murine leukemia L1210 cells; experiment: Cell fragmentation after ultrasound (Coulter particle size distribution); assay type: cell-based; conditions: 6 μM sensitizer, 15 min loading at 37° C., only intracellular texaphyrin; ultrasound 1.94 MHz, 3.9 W/cm^2
Protocol: as §1, §2
(§3) Fragmentation and Viability Studies—Cell counts and the particle size distribution were determined with a Coulter Electronics ZM Particle Analyzer and Model 256 Channelyzer. The Channelyzer determines the mean particle volume; intact cells were detected in channels 80-110. […] Cell counts were again determined after incubation for sufficient time to allow the number of control (untreated) cells to reach 20,000/ml, approximately 5 doublings.

[3] = tested on: murine leukemia L1210 cells; experiment: Viability (growth) assay after ultrasound; assay type: cell-based; conditions: for Viability: 6 μM sensitizer, 15 min loading at 37° C., only intracellular texaphyrin, ultrasound 1.94 MHz, 3.9 W/cm^2; for potentiation of the cytotoxic effect of ultrasound: cells previously exposed to 6 μM, ultrasound at 3.9 W/cm
Protocol: as §1
Cell Culture Systems—Murine leukemia L1210 cells were grown in Fischer's medium (GIBCO, Grand Island, N.Y.) supplemented with glutamine, 10% horse serum and gentamicin. All operations were carried out at 37° C. Exponentially growing cells were collected by centrifugation, resuspended (5×10^6 cells/ml) in serum-free Fischer's medium buffered to pH 7.0 with 20 mM HEPES.
Sensitizers—Lutetium Texaphyrin (Lu-Tex or PCI-0123) and Gadolinium Texaphyrin (Gd-Tex or PCI-0120) were dissolved in water at a concentration of 6 μM.
Test Groups—Four groups of cells were established: Control A (no sensitizer and no ultrasound), Control B (no sensitizer, with ultrasound); 6 μM Lu-Tex with ultrasound, and 6 μM Gd-Tex with ultrasound. A small volume of the respective sensitizers were added to the Lu-Tex and Gd-Tex groups followed by a loading incubation of 15 minutes at 37° C. The cells were then suspended in fresh (serum free) medium, such that only intracellular texaphyrin remained.
Ultrasound—Exposure of cell suspensions (except Control A) to ultrasound was carried out in 2.5 cm diameter petri dishes in a bath of degassed water. A 2.54-cm-diameter transducer (Valpey-Fisher) was driven by a power amplifier (ENI 240L) with a continuous wave 1.94 MHz sinusoidal signal source (Wavetek Model 23). The acoustic field was calibrated with a Marconi PVDF membrane hydrophone in a free field condition 3.0 cm from the surface of the transducer which is also the distance from the face to the exposure dish. The acoustic intensity, expressed in terms of the spatial peak temporal average (SPTA), was 3.9 W/cm^2.
as §3, with “80-110. Smaler particles represent debris resulting from cell fragmentation.” for “80-110.”

[4] = Maximum tolerated dose study; assay type: in vivo; conditions: determined in one study; intravenous injection
Protocol: For example, Lutetium Texaphyrin is administered in solution containing 2 mg/ml optionally in 5% mannitol, USP. Dosages of about 1.0 or 2.0 mg/kg to about 4.0 or 5.0 mg/kg, preferably 3.0 mg/kg may be employed, up to a maximum tolerated dose that was determined in one study to be 5.2 mg/kg. The texaphyrin is administered by intravenous injection, followed by a waiting period of from as little as several minutes or about 3 hours to as long as about 72 or 96 hours (depending on the treatment being effected) to facilitate intracellular uptake and clearance from the plasma and extracellular matrix prior to the administration of the sonodynamic agent. The co-administration of a sedative (e.g., benzodiazapenes) and narcotic analgesic are sometimes recommended prior to topical (as opposed to intravascular) light treatment. Topical administration. of Emla cream (lidocaine, 2.5% and prilocaine, 2.5%) under an occlusive dressing and other intradermal, subcutaneous and topical anesthetics may also be employed as necessary to reduce discomfort. Similar patient comfort considerations may apply in sonodynamic therapy, as will be apparent to the treating physician. Subsequent treatments can be provided after suitable time interval, currently approximately 21 days. […]

Row | Compound | comparison of tumor-bearing and control kidneys (histologic examination) (Colon 26 tumor cells) | Amount of Cytoleucene Transported [1] | Fragmentation [2] | Viability [3] | potentiation of the cytotoxic effect of ultrasound [3] | maximum tolerated dose [4]
1 | CC(=O)[O-].CC(=O)[O-].CCc1c(CC)c2cc3nc(cnc4cc(OCCOCCOCCOC)c(OCCOCCOCCOC)cc4ncc4nc(cc1[n-]2)C(CCCO)=C4C)C(C)=C3CCCO.O.[Gd+3] [Gd-Tex, Gadolinium Texaphyrin] | substantially the same | 3.2 ± 0.4 | 64 ± 4 | 42 ± 5 | substantial potentiation | 
2 | CC(=O)[O-].CC(=O)[O-].CCc1c(CC)c2cc3nc(cnc4cc(OCCOCCOCCOC)c(OCCOCCOCCOC)cc4ncc4nc(cc1[n-]2)C(CCCO)=C4C)C(C)=C3CCCO.O.[Lu+3] [Lu-Tex, Lutetium Texaphyrin] | substantially the same | 2.8 ± 0.3 | 73 ± 6 | 24 ± 3 | substantial potentiation | 5.2 mg/kg
3 | yttrium texaphyrin | substantially the same |  |  |  |  | 

From patent US20010002251A1, “Intracellular sensitizers for sonodynamic therapy” (Pharmacyclics, Inc., priority 1998, published 2001)
